From ChEMBL document CHEMBL1201862, “PubChem BioAssay data set” (2004)
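Step 1: Grow cells in 96-well plates. Step 2: Expose to compound for 48 hours at 5 concentrations. Step 3: Interpolate endpoints linearly; if unreached, use highest concentration. At the GI50, growth is halved.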 Calls of active or inactive are those of the source. Cut-off read from the data, not from the text of the source: active = GI50 up to about 1.1 µM and inactive = higher. Where a SMILES comes first, the peptide text is derived from it. Bridges are numbered along the chain shown (N, C = ends). The star is where a group is joined. Cbz = O=C(OCc1ccccc1)*

Key:
Test in all cases: inhibition of tumour cell growth, NCI panel, 48 h
A549 = test system: A549
ACHN = test system: ACHN
HCC 2998 = test system: HCC 2998
M14 = test system: M14
NCI-H23 = test system: NCI-H23
NCI-H460 = test system: NCI-H460
RPMI-8226 = test system: RPMI-8226
RXF 393 = test system: RXF 393
SF-268 = test system: SF-268
SK-MEL-2 = test system: SK-MEL-2
SNB-19 = test system: SNB-19
SR = test system: SR
TK-10 = test system: TK-10
UACC-257 = test system: UACC-257
EKVX = test system: EKVX
UACC-62 = test system: UACC-62
UO-31 = test system: UO-31
DU-145 = test system: DU-145
T47D = test system: T47D

| SMILES | GI50 (A549) | GI50 (ACHN) | GI50 (HCC 2998) | GI50 (M14) | GI50 (NCI-H23) | GI50 (NCI-H460) | GI50 (RPMI-8226) | GI50 (RXF 393) | GI50 (SF-268) | GI50 (SK-MEL-2) | GI50 (SNB-19) | GI50 (SR) | GI50 (TK-10) | GI50 (UACC-257) | GI50 (EKVX) | GI50 (UACC-62) | GI50 (UO-31) | GI50 (DU-145) | GI50 (T47D) |
| --- | --- | --- | --- | --- | --- | --- | --- | --- | --- | --- | --- | --- | --- | --- | --- | --- | --- | --- | --- |
| COc1ccc(C2SCC(=O)N2NC(=O)c2ccncc2)cc1F (configuration not stated) | > 100 µM (inactive) | > 100 µM (inactive) | > 100 µM (inactive) | > 100 µM (inactive) | > 100 µM (inactive) | > 100 µM (inactive) | > 100 µM (inactive) | > 100 µM (inactive) | > 100 µM (inactive) | > 100 µM (inactive) | > 100 µM (inactive) | > 100 µM (inactive) | > 100 µM (inactive) | > 100 µM (inactive) | – | – | – | – | – |
| CC1=C(O)C(=O)C2C(=O)C1C(C)C2c1ccc(C)cc1 (configuration not stated) | > 100 µM (inactive) | > 100 µM (inactive) | > 100 µM (inactive) | > 100 µM (inactive) | > 100 µM (inactive) | > 100 µM (inactive) | > 100 µM (inactive) | > 100 µM (inactive) | > 100 µM (inactive) | > 100 µM (inactive) | > 100 µM (inactive) | > 100 µM (inactive) | > 100 µM (inactive) | > 100 µM (inactive) | > 100 µM (inactive) | > 100 µM (inactive) | > 100 µM (inactive) | – | – |
| O=C(CC(O)(C(F)(F)F)C(F)(F)F)C(CCCl)C(O)(C(F)(F)F)C(F)(F)F (configuration not stated) | 35.6 µM (inactive) | 30.5 µM (inactive) | 43.8 µM (inactive) | 40.6 µM (inactive) | 33.2 µM (inactive) | 15 µM (inactive) | 16.7 µM (inactive) | 21.1 µM (inactive) | 30.7 µM (inactive) | 36.2 µM (inactive) | 34.5 µM (inactive) | 27.3 µM (inactive) | 55.7 µM (inactive) | 30.8 µM (inactive) | 34.7 µM (inactive) | 53.2 µM (inactive) | 28.2 µM (inactive) | 39.7 µM (inactive) | 26 µM (inactive) |
| Nc1nc(SCc2ccc([N+](=O)[O-])cc2)nc2c1ncn2C1OC(COP(=O)(O)O)C(O)C1O (configuration not stated) | > 100 µM (inactive) | > 100 µM (inactive) | > 100 µM (inactive) | > 100 µM (inactive) | > 100 µM (inactive) | > 100 µM (inactive) | – | > 100 µM (inactive) | > 100 µM (inactive) | > 100 µM (inactive) | > 100 µM (inactive) | > 100 µM (inactive) | > 100 µM (inactive) | > 100 µM (inactive) | > 100 µM (inactive) | > 100 µM (inactive) | – | – | – |
| COC(=O)C1CCCCNC(=O)CCC(NC(=O)OCc2ccccc2)C(=O)N1 (stereo not drawn) (Cbz-Glu-Lys-OMe; lactam 1-2; configuration not given here) | > 100 µM (inactive) | > 100 µM (inactive) | – | > 100 µM (inactive) | > 100 µM (inactive) | > 100 µM (inactive) | > 100 µM (inactive) | 25.5 µM (inactive) | 56.1 µM (inactive) | > 100 µM (inactive) | 66.7 µM (inactive) | > 100 µM (inactive) | > 100 µM (inactive) | > 100 µM (inactive) | > 100 µM (inactive) | > 100 µM (inactive) | > 100 µM (inactive) | > 100 µM (inactive) | > 100 µM (inactive) |
| COc1ccc(OC(C)=O)c2c1CCC=CC2=O | 19.1 µM (inactive) | 17.9 µM (inactive) | 17.1 µM (inactive) | 6.78 µM (inactive) | 18.5 µM (inactive) | 19.1 µM (inactive) | 1.01 µM (active) | 9.16 µM (inactive) | > 10 µM (inactive) | 17.8 µM (inactive) | 17.6 µM (inactive) | 15.1 µM (inactive) | 18.3 µM (inactive) | 17.7 µM (inactive) | – | 13.4 µM (inactive) | 17.2 µM (inactive) | – | – |
| COc1ccc(/C=c2\sc3nnc(CCC(=O)Nc4cccc(C(F)(F)F)c4)n3c2=O)cc1 | > 100 µM (inactive) | > 100 µM (inactive) | > 100 µM (inactive) | > 100 µM (inactive) | > 100 µM (inactive) | > 100 µM (inactive) | 38.4 µM (inactive) | 41.5 µM (inactive) | 97.5 µM (inactive) | 72.9 µM (inactive) | > 100 µM (inactive) | 42.6 µM (inactive) | > 100 µM (inactive) | > 100 µM (inactive) | > 100 µM (inactive) | > 62.8 µM (inactive) | > 100 µM (inactive) | – | – |
| CCNc1ncnc2nn[nH]c12 | > 100 µM (inactive) | > 100 µM (inactive) | > 100 µM (inactive) | > 100 µM (inactive) | > 100 µM (inactive) | – | > 100 µM (inactive) | > 100 µM (inactive) | – | > 100 µM (inactive) | > 100 µM (inactive) | – | > 100 µM (inactive) | > 100 µM (inactive) | > 100 µM (inactive) | > 100 µM (inactive) | > 100 µM (inactive) | > 100 µM (inactive) | > 100 µM (inactive) |
